The values below are quoted from earlier work in patent US20250339338A1, “BLOOD STORAGE CONTAINER CONTAINING AQUEOUS COMPOSITION FOR THE STORAGE OF RED BLOOD CELLS” (Hemerus Medical, LLC, priority 2013, published 2025).

The test system of the data set is humans. The settings on record: in vivo.

Take `CCCCC(CC)COC(=O)c1ccccc1C(=O)OCC(CC)CCCC` (stereo not shown) [DEHP, di-ethylhexyl phthalate]: the “adverse health effects found in studies in humans” value is “adverse health effects such as respiratory distress, choleostasis, and histological abnormalities of the liver”.
